# Test results as given in article PMC8233378, “Acyclic nucleoside phosphonates with adenine nucleobase inhibit Trypanosoma brucei adenine phosphoribosyltransferase in vitro” (Scientific Reports, 2021).
# B1: recombinant T. brucei APRT1 (Trypanosoma brucei brucei TREU927) (protein)
# chain: SLVEVLPNYFTLSKDSPLRKKFEKVYKWYSPAFSPHDVPRFAEVGNITENPEVMRGIRDFFVDRYKNLQQPITHILGFDSRGFLLGPMIAVELNVPFVLIRKANKIAGVIIKSEPYTKEYAAESEECMTVRFGSFDKNSRVVLIDDVIATGGTMLAGVQLVDACGATLVEVAGILGLTFLKGTQPAHTFAGGRYSNVPFVTLVDETVLSDENCGDPLHHKGSRIISCAEAKKLI
# Experiments:
# [1] = system: Leishmania donovani APRT1; set-up: method as in PMID 11900545; settings: substrate of Leishmania donovani APRT1; cited from earlier work
# [2] = system: Normal human dermal fibroblasts (NHDF); experiment: Cytotoxicity of the prodrug in human cells (CellTiter-Glo 2.0), NHDF; type: cell-based; settings: 10 µM
# Experimental: (§1) Compound cytotoxicity was evaluated in Hela S3 cancer cells and non-tumor human dermal fibroblasts (NHDF). All cell lines were obtained from ATCC (Manassas, VA, USA). The cytotoxicity was assayed using CellTiter-Glo® 2.0 detection reagent (Promega, Madison, USA) according to the manufacturer’s protocol.
# HeLa S3 cells = experiment: Cytotoxicity of the prodrug in human cells (CellTiter-Glo 2.0), HeLa S3; type: cell-based; settings: HeLa S3, 10 µM
# Experimental: as §1
# T. brucei BSF cells = experiment: Cell cycle analysis of treated trypanosomes (microscopy, flow cytometry with propidium iodide); type: cell-based, Trypanosoma brucei
# Excerpt: The inhibition of the growth of T. brucei BSF in HMI-11 medium in single micromolar EC50 values (Table 1) was somewhat surprising considering the dispensability of APRT enzymes for these cells. […] To get deeper insights into the in vivo action of ANPs on APRT enzyme we tested their cytotoxicity on wild type cells grown in HMI-11^adenine medium. In this medium, the cells rely on the activity of the APRT enzyme to produce AMP and other […]. […] To corroborate this observation, we also tested cells with induced ectopic expression of V5-tagged APRT1 in both types of media and in the presence of the selected ANPs. […] The changes in the distribution of different cell cycle stages within a population were further assessed by flow cytometry assaying the DNA content by staining the cells with propidium iodide (Fig. 8A).
# BFS trypanosomes in log phase were resuspended in HMI-11 medium to a density of 2 × 10^5 cells ml^−1. Test compounds at concentrations ranging from 1 to 16 µM were added to the cell suspension followed by 12 h incubation at 37 °C. The cell cycle analysis was performed as described previously. Briefly, approximately 2 × 10^6 cells were washed with PBS and fixed in 1 ml of 70% methanol in 1 × PBS and stored at 4 °C overnight. Following a PBS wash, samples were incubated with 10 µg/ml propidium iodide and 9.6 µg/ml of RNaseA at 37 °C for 45 min. Samples were analyzed on a FACS Canto II (BD) collecting 10,000 gated events.
# [3] = biological target: recombinant T. brucei APRT1 (Trypanosoma brucei brucei, UniProt Q57V32); experiment: APRT1 steady-state enzyme kinetics for substrates; settings: substrate of T. brucei APRT1
# Experimental: To test if the newly synthesized ANPs with an adenine as a nucleobase can inhibit the activity of the APRT1 and APRT2, both enzymes were overexpressed in E. coli. […] First, we monitored the APRT1 enzyme activity by a continuous spectrophotometric assay measuring the conversion of adenine to AMP at 256 nm.
# The methodology was adapted from Ref.[6]. Briefly, the enzyme kinetics of APRT1 were measured by a continuous spectrophotometric assay measuring the conversion of adenine to AMP, at 256 nm. The concentration of enzyme in the assay was 140 nM, the concentration of PRib-PP was kept at 1 mM and the adenine concentration varied from 3.75 to 60 μM. The reaction was carried out using a 1.0 cm path length with a UV Visible spectrometer 1601 (Shimadzu) in the reaction buffer (0.1 M Tris, pH 8.4; 0.11 M MgCl2; at 25 °C). The initial velocity (V0 [µM/min]) was calculated using Beer–Lambert law for different concentration of the purine substrate molecules: A = Δε × L × c where A is the measured absorbance, Δε is constant 2100 M^−1 cm^−1 for adenine, c is a concentration of the product formed in one minute (V0) and L is the length of a cuvette. The Km, Vmax and kcat values were calculated using GraphPad Prism 9 according to Michaelis–Menten kinetics. […] The Ki values were calculated using non-linear regression in GraphPad Prism 9.
# [4] = substrate: Nc1ncnc2nc[nH]c12; experiment: purified protein, by the assay type; settings: other: substrate of T. brucei APRT1; pH 8.4; 25.0 °C
# Excerpt: The APRT1 was purified as an active recombinant enzyme from the soluble fraction. […] First, we monitored the APRT1 enzyme activity by a continuous spectrophotometric assay measuring the conversion of adenine to AMP at 256 nm.
molecule,measurement,setting,value
Nc1ncnc2[nH]cnc12 [adenine],Kcat,[1],17.9 s⁻¹
same,Km,[1],2.3 ± 1.1 µM
"CCOC(=O)[C@H](Cc1ccccc1)NP(=O)(CCN(CCN(CCP(=O)(N[C@@H](Cc1ccccc1)C(=O)OCC)N[C@@H](Cc1ccccc1)C(=O)OCC)CCP(=O)(N[C@@H](Cc1ccccc1)C(=O)OCC)N[C@@H](Cc1ccccc1)C(=O)OCC)CCn1cnc2c(N)ncnc21)N[C@@H](Cc1ccccc1)C(=O)OCC [compound 28, Hexa-(ethyl L-phenylalanine) prodrug of (2-((2-((2-(adenine-9-yl)ethyl)(2-phosphonoethyl)amino)ethyl)(2-phosphonoethyl)amino)ethyl)phosphonic acid]",effect on viability of NHDF (in words),[2],toxic
same,Cytotoxicity of prodrug: NHDF viability,[2]; NHDF,4%
same,Cytotoxicity of prodrug: HeLaS3 viability,HeLa S3 cells,94%
same,direct microscopic observation of exposed T. brucei cells,T. brucei BSF cells,problems in the cell cycle
"O=P(O)(O)OC[C@H]1O[C@H](OP(=O)(O)OP(=O)(O)O)[C@H](O)[C@@H]1O [phosphoribosyl pyrophosphate (PRib-P), 5-phospho-α-D-ribosyl-1-pyrophosphate]",Kcat,[3],1.8 s⁻¹
same,Km,[3],162 ± 21.6 µM
same,Km,[1],25.1 ± 5.9 µM
B1,Km,[4],8.7 ± 1.9 µM
same,kcat,[4],0.82 s⁻¹
